Our source for the EC50 values is patent US10336675B2, “Biaromatic vitamin D analogs” (DSM IP ASSETS B.V., priority 2015, dated 2019).

The target of the test is T1, human vitamin D receptor (VDR) (Homo sapiens, UniProt P11473).
T1 construct: expressed in transfected cells; host or cells: HEK293 cells (ATCC), transient transfection with a GATEWAY-compatible pCMV-BD vector
T1 sequence (P11473 127-423 limits assumed): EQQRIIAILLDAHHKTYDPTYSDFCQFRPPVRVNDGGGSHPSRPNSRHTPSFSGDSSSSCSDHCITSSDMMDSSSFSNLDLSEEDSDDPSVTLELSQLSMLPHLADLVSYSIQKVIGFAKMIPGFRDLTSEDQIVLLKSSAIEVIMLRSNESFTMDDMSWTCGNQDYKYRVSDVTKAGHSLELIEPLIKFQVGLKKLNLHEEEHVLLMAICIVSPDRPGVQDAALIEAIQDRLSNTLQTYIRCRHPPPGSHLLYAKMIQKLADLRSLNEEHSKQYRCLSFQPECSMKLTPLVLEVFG
Briefly: Human vitamin D receptor (VDR) agonist activity: GAL4-VDR LBD luciferase transactivation assay in transiently transfected HEK293 cells. It is filed as cell-based. Conditions: VDR LBD-GAL4 DBD fusion, pFR-Luc luciferase reporter, 16 h incubation, read-out: Effective concentrations of half maximal activation (EC50). From the text: By way of example, the human vitamin D receptor (VDR) agonist activity of the claimed compounds can be tested using a cell based transactivation assay in an eukaryotic cell line. After a co-transfection, using a reporter plasmid construct and a hybrid receptor construct containing the ligand-binding domain of the human VDR linked to the DNA-binding domain of the yeast transcription factor GAL4, the cultured cells were stimulated by the VDR agonists. The hybrid VDR-GAL4 receptor binds the VDR agonists and transactivates luciferase reporter expression through the GAL4-response elements in the promoter of the luciferase gene (reporter construct). The VDR agonist binding and transactivation is determined by measuring the luciferase luminescence activity. The effective concentration of half maximal activation (EC50) was determined for the VDR agonists by means of dose-response experiments. The details of the protocol method of this test according to the invention are described in the example section.
Testing of the Human Vitamin D Receptor (VDR) Agonist Activity of the Compounds
The transient transfections were performed in HEK293 cells (ATCC, Molsheim, France) grown in minimum essential medium (Eagle) with Earle's balanced salt solution without L-glutamine and supplemented with 10% fetal bovine serum (Sigma-Aldrich Corp., St. Gallen, Switzerland), 2 mM glutamax (Life Technologies AG, Basel, Switzerland), 0.1 mM non-essential amino acids (Life Technologies), and 1 mM sodium pyruvate (Life Technologies) at 37° C. in 5% CO2. For transfection, 7.5×10^4 cells were plated per well (80 μl) in white 96-well cell culture plates with clear bottom (Corning, Basel, Switzerland) in minimum essential medium (Eagle) with Earle's balanced salt solution without L-glutamine and without phenol red supplemented with 10% charcoal-treated fetal bovine serum (HyClone Laboratories, Inc., Logan, Utah, USA), 2 mM glutamax, 0.1 mM non-essential amino acids, and 1 mM sodium pyruvate. The cells were transiently transfected before stimulation the next day at >80% confluence by polyethylene-imine-based transfection. Compound stocks were prepared in DMSO, pre-diluted in PBS (0.45% final DMSO concentration), and added in the respective dilution 5 h after the addition of the transfection mixture onto the cells. The cells were again incubated for additional 16 h before firefly and renilla luciferases activity was measured sequentially in the same cell extract using buffers according to established protocols (Promega AG, Dübendorf, Switzerland). Transfection efficiency was controlled to the pRL-TK renilla luciferase reporter expression.
`CC/C(=C\C=C\C(O)(C(F)(F)F)C(F)(F)F)c1cccc(CCc2ccc(C(O)CCO)cc2)c1` (racemic) [I-b, 1-(4-(3-((3E,5E)-8,8,8-trifluoro-7-hydroxy-7-(trifluoromethyl)octa-3,5-dien-3-yl)phenethyl)phenyl)propane-1,3-diol]: the EC50 was found to be 12 nM.
In the case of `CC/C(=C\C=C\C(O)(CC)CC)c1cccc(CCc2ccc(C(O)CCO)cc2)c1` (racemic) [I-c, 1-(4-(3-((3E,5E)-7-ethyl-7-hydroxynona-3,5-dien-3-yl)phenethyl)phenyl)propane-1,3-diol], the EC50 is 13 nM.
For the compound `CC/C(=C\C=C\C(O)(CC)CC)c1cccc(CCc2ccc(C(O)C(CO)CCCCO)cc2)c1` (stereo not shown) [Comp1, reference compound], the EC50 stood at 111 nM.
Take `CC/C(=C\C=C\C(O)(CC)CC)c1cccc(CCc2ccc(C(O)CC(C)O)cc2)c1` (stereo not shown) [I-a, 1-(4-(3-((3E,5E)-7-ethyl-7-hydroxynona-3,5-dien-3-yl)phenethyl)phenyl)butane-1,3-diol]: the EC50 came out at 4 nM.
As to `CC/C(=C\C=C\C(O)(CC)CC)c1cccc(CCc2ccc(C(O)C(C)CO)cc2)c1` (stereo not shown) [I-d, 1-(4-(3-((3E,5E)-7-ethyl-7-hydroxynona-3,5-dien-3-yl)phenethyl)phenyl)-2-methylpropane-1,3-diol], the EC50 is 28 nM.
With `CC/C(=C\C=C\C(O)(CC)CC)c1cccc(CCc2ccc(C(O)C(CO)CCCO)cc2)c1` (stereo not shown) [I-e, 1-(4-(3-((3E,5E)-7-ethyl-7-hydroxynona-3,5-dien-3-yl)phenethyl)phenyl)-2-(hydroxymethyl)pentane-1,5-diol], the EC50 turned out to be 30 nM.
Take `CC/C(=C\C=C\C(O)(CC)CC)c1cccc(CCc2ccc(C(O)C(C)C(C)O)cc2)c1` (stereo not shown) [I-f, 1-(4-{2-[3-((1E,3E)-1,5-Diethyl-5-hydroxy-hepta-1,3-dienyl)-phenyl]-ethyl}-phenyl)-2-methylbutane-1,3-diol]: the EC50 was 34 nM.
